Reference: ChEMBL document CHEMBL1130382, “Inhibition of thyroid hormone uptake by calcium antagonists of the dihydropyridine class” (J Med Chem, 1997)

Columns and labels:
[1] = test system: HepG2; assay: Inhibitory effect on L-triiodothyronine (L-T3) uptake by human HepG2 hepatoma cells at an application dose 10E-5 M; format: functional
[2] = Partition coefficient (logP); conditions: octanol/water
[3] = test system: HepG2; assay: Compound tested for inhibitory effect on L-triiodothyronine (L-T3) uptake by human HepG2 hepatoma cells at an application dose 10E-5 (M); format: functional

SMILES | logP [2] | I [1] | I [3]
CCO/C(O)=C1\C(C)=NC(C)=C(C(=O)OC)C1c1cccc(C(F)(F)F)c1 (stereo not given) | 3.9 | 19.6% | –
COC(=O)C1=C(C)NC(C)=C(C(=O)OC)C1c1ccccc1[N+](=O)[O-] [NIFEDIPINE] | – | 80.5% | –
CCOC(=O)C1=C(C)NC(C)=C(C(=O)OCC)C1c1cccc(O)c1 | 4.03 | 21.6% | –
CC1=C(C#N)C(c2cccc([N+](=O)[O-])c2)C(C#N)=C(C)N1 | 1.45 | 53.8% | –
CCOC(=O)c1c(C)nc(C)c(C(=O)OCC)c1-c1cccc([N+](=O)[O-])c1 | 3.1 | 28.4% | –
CCOC(=O)C1=C(C)NC(C)=C(C(=O)OC)C1c1cccc([N+](=O)[O-])c1 (stereo not given) [NITRENDIPINE] | – | 81.8% | –

Second part, led by results:

logP [2] | SMILES | I [1] | I [3]
3.82 | CCO/C(O)=C1\C(C)=NC(C)=C(C(=O)OC)C1c1ccccc1C(F)(F)F (stereo not given) | 23.1% | –
2.94 | c1ccc(Nc2ccccc2)cc1 [DIPHENYLAMINE] | 20.9% | –
3.22 | CCOC(=O)C1=C(C)N=C(C)/C(=C(/O)OCC)C1c1cccc(OC)c1 (stereo not given) | 17.5% | –
3.76 | CCOC(=O)C1=C(C)N=C(C)/C(=C(/O)OCC)C1c1cccc(C)c1 (stereo not given) | 29.7% | –
4.48 | CCOC(=O)C1=C(C)N=C(C)/C(=C(/O)OCC)C1c1cccc(I)c1 (stereo not given) | – | 33.2%
3.6 | CCO/C(O)=C1\C(C)=NC(C)=C(C(=O)OC)C1c1ccc([N+](=O)[O-])cc1 (stereo not given) | 85.8% | –
2.51 | CCO/C(O)=C1\C(C)=NC(C)=C(C(=O)OC)C1c1ccccc1[N+](=O)[O-] (stereo not given) | 41.4% | –
3.83 | c1ccc(Oc2ccccc2)cc1 [DIPHENYLETHER] | 22% | –
4.7 | CCOC(=O)C1=C(C)N=C(C)/C(=C(/O)OCC)C1c1ccc(I)cc1 (stereo not given) | 26.8% | –
3.08 | O=C(O)c1ccccc1Nc1ccccc1 [FENAMIC ACID] | 20.5% | –
